Literature values as cited in patent US11542295B2, “Use of 20-hydroxyecdysone and the derivatives thereof in the treatment of myopathies” (BIOPHYTIS, priority 2017, dated 2023).

Tests used:
[1] = system: muscles of rats; conditions: rats in vivo; cited from earlier work
[2] = system: C2C12 mouse myotubes; conditions: C2C12 mouse myotubes in vitro; cited from earlier work
[3] = system: young athletes; conditions: young athletes (Simakin et al., 1988); cited from earlier work

**Q.** For `CC(C)(O)CC[C@@H](O)[C@](C)(O)[C@H]1CC[C@@]2(O)C3=CC(=O)[C@@H]4C[C@@H](O)[C@@H](O)C[C@]4(C)[C@H]3CC[C@]12C` [20-hydroxyecdysone], which “effects on protein syntheses in muscles” value [1] is on record?
**A.** stimulant effects

**Q.** And the “effects on protein syntheses” value [2]?
**A.** stimulant effects

**Q.** And the muscle mass [3]?
**A.** increases
